Source: patent US10849989B2, “Isolated composite drug and carrier nanoparticles” (University of Limerick, priority 2016, dated 2020)

Legend:
[1] = isoelectric point; cited from earlier work
[2] = Particle size analysis by laser diffraction (Malvern Mastersizer 3000); type: physicochemical; details: water as dispersion medium
Protocol: Particle size can be determined by laser diffraction, for example using a Malvern Mastersizer 3000.
Particle size measurements were performed by laser diffraction using a Malvern Mastersizer 3000, with water as the dispersion medium. In cases where the particle size was not stable, HPMC and SDS were added to the water dispersant at a concentration of 0.038 mg/mL each to minimise variation between consecutive measurements. Precipitated drug suspensions were diluted by a factor of 5 with water prior to their introduction to the measurement vessel. An MMT control was treated by the conditions used during antisolvent precipitation before measuring its particles size. An obscuration rate of 7-10%, a stir rate of 2300 rpm, a 1 min pre-measurement delay (including 20 sec with 5% sonication power) were the conditions used during all size measurements. A refractive index of 1.55 and an absorption index of 0.01 were used for FF measurements. A refractive index of 1.55 and an absorption index of 0.1 were used for MMT measurements. Four measurements were taken per run and each sample was run twice. The D50 was reported for each size distribution and averaged across all measurements. Measurement variations were also reported.

[3] = Zeta potential determination (electrophoretic light scattering, Malvern Zetasizer Nano ZSP); type: physicochemical; details: particles without surface treatment agent, suspension in water, 25° C.
Protocol: Zeta potential can be determined from electrophoretic mobility using the Smoluchowski calculation. The electrophoretic mobility value can be determined at 25° C. by electrophoretic light scattering (ELS), e.g. using a Malvern Zetasizer Nano ZSP system. Such commercially available ELS instrumentation will directly provide zeta potential values. Aqueous suspensions are filled into a folded capillary cell and equilibrated at 25° C. for 120 seconds before measurement. Three measurements are taken per run and each sample is run twice. The average value and the variation between measurements can be reported.
Unless otherwise stated, reference to zeta potential is a reference to the zeta potential of a suspension of the particles in water at neutral pH (pH 7) at standard ambient temperature and pressure (SATP, 25° C. and 100 kPa).
Zetapotential measurements were conducted on a Malvern Zetasizer Nano ZSP system. Zetapotential was determined from the electrophoretic mobility using the Smoluchowski approximation. The samples (without dilution) were filled into a folded capillary cell and equilibrated at 25° C. for 120 s before measurement. Three measurements were taken per run and each sample was run twice. The average value and the variation between measurements were reported.

[4] = Drug loading of nanoparticles on carrier; type: physicochemical; details: on the PA-MMT carrier (4.6 mg PA/g MMT)
Text: The drug loading in % w/w is the amount of drug in grams per 100 g of functionalised carrier particles. A high drug loading is beneficial for delivering a sufficient dose to a patient. In embodiments the composite has a drug loading of at least 2, 4, 6, 8, 9, 10, 15, 20, 30, 40 or 50% w/w. In embodiments the composite has a drug loading of no more than 100, 90, 80 or 70% w/w.
The drug loading (% w/w) can also be determined by dissolution testing whereby a known mass of dry drug loaded carrier particles is dissolved in a known volume of dissolution media. […] The concentration of drug in the dissolution media is measured by UV/Vis and/or HPLC spectroscopic methods until it stops increasing with time. The mass of drug present on the known mass of drug loaded carrier particles can thus be estimated and the drug loading in (% w/w) can be calculated.
Nanoparticles of both fenofibrate (FF) and mefenamic acid (MEF) were generated by antisolvent precipitation. An organic solution of FF in ethanol (1 mL, 50 mg/mL) was quickly introduced by Eppendorf pipet to 10 mL antisolvent containing (a) water, (b) an MMT suspension in water (50 mg/mL, equilibrated for >2 hrs) or (c) a protamine-modified MMT suspension in water (50 mg/mL, 4.6-189.9 mg PA/g MMT, equilibrated for >2 hrs). Solutions/suspensions were maintained at 25° C. under rapid agitation (800 rpm) throughout the precipitation process. […]

Compound	pI [1]	particle size D50 [2]	zeta potential [3]	drug loading [4]
C[C@H](N)C(=O)O [Alanine]	6.00	–	–	–
Cc1cccc(Nc2ccccc2C(=O)O)c1C [mefenamic acid]	–	0.84±0.05 μm	−35.3 mV	4.8%
Avidin [Avidin (glycoprotein)]	10.5	–	–	–
Galatine B	5	–	–	–
Gelatine A	6-9	–	–	–
